#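 Five concentrations, 48 hours, 96-well plates. GI50 marks 50% less growth.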 Calls of active or inactive are those of the source. Cut-off read from the data, not from the text of the source: active = GI50 up to about 1.1 µM and inactive = higher.
# Legend:
# Assay in all cases: DTP human tumour cell line panel, 48 h
# HT-29 = test system: HT-29
# SK-OV-3 = test system: SK-OV-3
# T47D = test system: T47D
# BT-549 = test system: BT-549
# MDA-MB-435 = test system: MDA-MB-435
# SW-620 = test system: SW-620
# IGROV-1 = test system: IGROV-1
# HOP-92 = test system: HOP-92
# SF-295 = test system: SF-295
# RXF 393 = test system: RXF 393
# LOX IMVI = test system: LOX IMVI
# OVCAR-5 = test system: OVCAR-5
# MCF7 = test system: MCF7
# RPMI-8226 = test system: RPMI-8226
# HOP-62 = test system: HOP-62
# UO-31 = test system: UO-31
# SF-539 = test system: SF-539
# A549 = test system: A549
# Hs-578T = test system: Hs-578T
# SK-MEL-2 = test system: SK-MEL-2
# NCI-H23 = test system: NCI-H23
# SK-MEL-28 = test system: SK-MEL-28
# EKVX = test system: EKVX
# MDA-N = test system: MDA-N
# KM12 = test system: KM12
# SR = test system: SR
# K562 = test system: K562
# NCI-H460 = test system: NCI-H460
# NCI/ADR-RES = test system: NCI/ADR-RES
# TK-10 = test system: TK-10
# ACHN = test system: ACHN
# HCT-15 = test system: HCT-15
# NCI-H522 = test system: NCI-H522
# OVCAR-3 = test system: OVCAR-3
# CCRF-CEM = test system: CCRF-CEM
# MOLT-4 = test system: MOLT-4
# SK-MEL-5 = test system: SK-MEL-5
# HCC 2998 = test system: HCC 2998
# A498 = test system: A498
# U-251 = test system: U-251
# CAKI-1 = test system: CAKI-1
# DU-145 = test system: DU-145
# PC-3 = test system: PC-3
# SNB-19 = test system: SNB-19
# SNB-75 = test system: SNB-75
# 786-0 = test system: 786-0
# OVCAR-8 = test system: OVCAR-8
# HL-60 = test system: HL-60
# MDA-MB-231 = test system: MDA-MB-231
# COLO 205 = test system: COLO 205
# UACC-62 = test system: UACC-62
# UACC-257 = test system: UACC-257
# Malme-3M = test system: Malme-3M
# M14 = test system: M14
# SF-268 = test system: SF-268
# HCT-116 = test system: HCT-116
# SN12C = test system: SN12C
# NCI-H226 = test system: NCI-H226
# OVCAR-4 = test system: OVCAR-4
smiles,measurement,setting,value
CCOC(=O)CCC(NC(=O)c1ccc(Nc2nc3ccccc3n3cccc23)cc1)C(=O)OCC (stereo not drawn),GI50,HT-29,17.9 µM (inactive)
same,GI50,SK-OV-3,24.1 µM (inactive)
same,GI50,T47D,< 0.01 µM (active)
same,GI50,BT-549,23.3 µM (inactive)
same,GI50,MDA-MB-435,30.2 µM (inactive)
same,GI50,SW-620,81.7 µM (inactive)
same,GI50,IGROV-1,35.5 µM (inactive)
same,GI50,HOP-92,32.1 µM (inactive)
same,GI50,SF-295,25.2 µM (inactive)
same,GI50,RXF 393,12.2 µM (inactive)
same,GI50,LOX IMVI,26.1 µM (inactive)
same,GI50,OVCAR-5,45.6 µM (inactive)
same,GI50,MCF7,16.6 µM (inactive)
same,GI50,RPMI-8226,23.1 µM (inactive)
same,GI50,HOP-62,23.7 µM (inactive)
same,GI50,UO-31,44.9 µM (inactive)
same,GI50,SF-539,18.8 µM (inactive)
same,GI50,A549,39.6 µM (inactive)
same,GI50,Hs-578T,35.6 µM (inactive)
same,GI50,SK-MEL-2,20 µM (inactive)
same,GI50,NCI-H23,35.9 µM (inactive)
same,GI50,SK-MEL-28,47.6 µM (inactive)
same,GI50,EKVX,41.5 µM (inactive)
same,GI50,MDA-N,28.4 µM (inactive)
same,GI50,KM12,31.1 µM (inactive)
same,GI50,SR,15.3 µM (inactive)
same,GI50,K562,38.5 µM (inactive)
same,GI50,NCI-H460,28.7 µM (inactive)
same,GI50,NCI/ADR-RES,19.5 µM (inactive)
same,GI50,TK-10,22.5 µM (inactive)
same,GI50,ACHN,20.6 µM (inactive)
same,GI50,HCT-15,29.7 µM
same,GI50,NCI-H522,22.9 µM (inactive)
same,GI50,OVCAR-3,18.2 µM (inactive)
same,GI50,CCRF-CEM,54.8 µM (inactive)
same,GI50,MOLT-4,18.3 µM (inactive)
same,GI50,SK-MEL-5,31 µM (inactive)
same,GI50,HCC 2998,29.8 µM (inactive)
same,GI50,A498,70.1 µM (inactive)
same,GI50,U-251,23 µM (inactive)
same,GI50,CAKI-1,33.6 µM (inactive)
same,GI50,DU-145,28.9 µM (inactive)
same,GI50,PC-3,16.4 µM (inactive)
same,GI50,SNB-19,42.1 µM (inactive)
same,GI50,SNB-75,26.7 µM (inactive)
same,GI50,786-0,17 µM (inactive)
same,GI50,OVCAR-8,19.6 µM (inactive)
same,GI50,HL-60,> 100 µM (inactive)
same,GI50,MDA-MB-231,21.5 µM (inactive)
same,GI50,COLO 205,53.8 µM (inactive)
same,GI50,UACC-62,23.1 µM (inactive)
same,GI50,UACC-257,26.2 µM (inactive)
same,GI50,Malme-3M,37.2 µM (inactive)
same,GI50,M14,51.6 µM (inactive)
same,GI50,SF-268,37.8 µM (inactive)
same,GI50,HCT-116,31.2 µM (inactive)
CS(=O)(=O)Nc1ccc2c(c1)oc(=O)c1ccccc12,GI50,SN12C,> 100 µM (inactive)
same,GI50,NCI-H226,> 100 µM (inactive)
same,GI50,HT-29,> 100 µM (inactive)
same,GI50,OVCAR-4,> 100 µM (inactive)
same,GI50,T47D,> 100 µM (inactive)
same,GI50,BT-549,> 100 µM (inactive)
same,GI50,MDA-MB-435,> 100 µM (inactive)
same,GI50,SW-620,> 100 µM (inactive)
same,GI50,IGROV-1,> 100 µM (inactive)
same,GI50,HOP-92,> 100 µM (inactive)
same,GI50,SF-295,> 100 µM (inactive)
same,GI50,RXF 393,> 100 µM (inactive)
same,GI50,LOX IMVI,> 100 µM (inactive)
same,GI50,OVCAR-5,> 100 µM (inactive)
same,GI50,MCF7,> 100 µM (inactive)
same,GI50,RPMI-8226,> 100 µM (inactive)
same,GI50,HOP-62,> 100 µM (inactive)
same,GI50,UO-31,38.5 µM (inactive)
same,GI50,SF-539,> 100 µM (inactive)
same,GI50,A549,> 100 µM (inactive)
same,GI50,Hs-578T,> 100 µM (inactive)
same,GI50,SK-MEL-2,> 100 µM (inactive)
same,GI50,NCI-H23,> 100 µM (inactive)
same,GI50,SK-MEL-28,> 100 µM (inactive)
same,GI50,EKVX,45.4 µM (inactive)
same,GI50,MDA-N,> 100 µM (inactive)
same,GI50,KM12,> 100 µM (inactive)
same,GI50,SR,> 100 µM (inactive)
same,GI50,K562,> 100 µM (inactive)
same,GI50,NCI-H460,> 100 µM (inactive)
same,GI50,NCI/ADR-RES,> 100 µM (inactive)
same,GI50,ACHN,> 100 µM (inactive)
same,GI50,HCT-15,> 100 µM
same,GI50,NCI-H522,> 100 µM (inactive)
same,GI50,OVCAR-3,> 100 µM (inactive)
same,GI50,CCRF-CEM,> 100 µM (inactive)
same,GI50,MOLT-4,> 100 µM (inactive)
same,GI50,SK-MEL-5,> 100 µM (inactive)
same,GI50,HCC 2998,> 100 µM (inactive)
same,GI50,A498,> 100 µM (inactive)
same,GI50,U-251,> 100 µM (inactive)
same,GI50,CAKI-1,> 100 µM (inactive)
same,GI50,DU-145,> 100 µM (inactive)
same,GI50,PC-3,> 100 µM (inactive)
same,GI50,SNB-19,> 100 µM (inactive)
same,GI50,SNB-75,> 100 µM (inactive)
same,GI50,786-0,> 100 µM (inactive)
same,GI50,OVCAR-8,> 100 µM (inactive)
same,GI50,HL-60,> 100 µM (inactive)
same,GI50,MDA-MB-231,> 100 µM (inactive)
same,GI50,COLO 205,> 100 µM (inactive)
same,GI50,UACC-62,65 µM (inactive)
same,GI50,UACC-257,> 100 µM (inactive)
same,GI50,Malme-3M,> 100 µM (inactive)
same,GI50,M14,> 100 µM (inactive)
same,GI50,SF-268,13.3 µM (inactive)
same,GI50,HCT-116,> 100 µM (inactive)

# — ChEMBL document CHEMBL1201862, “PubChem BioAssay data set” (2004)
